Data: PubChem BioAssay AID742 (SRMLSC, 2007)
Calls of active or inactive are those of the source. No rule for the calls is given here.

Assays:
[1] = inhibitors of Her2 kinase expression, dose response, cell-based, AlphaScreen, CellTiter-Glo viability (AID 742); conditions: human cells, Her2 expression AlphaScreen; CTG viability; at 9.62 µM (top of the series)
[2] = tested on: human cells, Her2 expression AlphaScreen; CTG viability; test: as above; conditions: viability, CellTiter-Glo

Row | SMILES | Her2 inhibition [1] | EC50 [2]
1 | O=C(O)c1ccc2c3c(ncnc13)-c1ccccc1C2=O | -3.54% (inactive) | > 9.62 µM
2 | Nc1c(C(=O)Nc2ccccc2)sc2nc(-c3ccco3)ccc12 | 18.3% (inactive) | > 9.62 µM
3 | Cc1ccc(S(=O)(=O)CCC(=O)c2ccc(O)cc2O)cc1 | 1.34% (inactive) | > 9.62 µM
4 | C1CCC(C(CC2CCCCN2)C2CCCCC2)CC1 (stereo not given) | -33.2% (inactive) | > 9.62 µM
5 | CS(=O)c1nc(-c2ccc(Br)cc2)cc(-c2ccccc2)c1C#N (stereo not given) | 34% (inactive) | > 9.62 µM
6 | CCOC(=O)C(NC(C)=O)(N1CCc2ccccc2C1)C(F)(F)F (stereo not given) | -13.1% (inactive) | > 9.62 µM
7 | C/C(=N\O)C(=O)C(CN1CCCCC1)CN1CCCCC1 | 15.2% (inactive) | > 9.62 µM
8 | COc1ccc(-c2nnc(SC(=O)N3c4ccccc4Sc4ccccc43)o2)cc1 | -24.1% (inactive) | > 9.62 µM
9 | S=C1SCN(CCN2CCOCC2)CN1Cc1ccccc1 | -20.1% (inactive) | > 9.62 µM
10 | O=C(NCc1cccs1)c1nc2c(nnn2Cc2ccccc2Cl)c(=O)[nH]1 | 45.2% (inactive) | > 9.62 µM
11 | CCc1nc(C)ccc1OCC(=O)NCCCN(C)C | -3% (inactive) | > 9.62 µM
12 | C[C@H]1CCC[C@H](O)CCCCCc2cc(O)cc(O)c2C(=O)O1 | 3.17% (inactive) | > 9.62 µM
13 | CC1CC(C)(C)Nc2ccc(OC(=O)c3ccco3)cc21 (stereo not given) | -5.22% (inactive) | > 9.62 µM
14 | Cc1ccc2nc(Nc3ccccc3)c(/C=N/O)c(=O)n2c1 | -10.3% (inactive) | > 9.62 µM
15 | Cc1[nH]nc2c1C(C1CC=CCC1)C(C#N)=C(N)O2 (stereo not given) | -29.3% (inactive) | > 9.62 µM
16 | O=C(Nc1nccs1)C1C2/C=C\CCCCC21 (stereo not given) | -0.67% (inactive) | > 9.62 µM
17 | O=C(CN1CCC(c2nc3ccccc3s2)CC1)NCc1cccs1 | -41.9% (inactive) | > 9.62 µM
18 | CCC(C)NC(=O)c1cnn2c1NC(c1ccc3c(c1)OCO3)CC2C(F)(F)F (stereo not given) | -0.33% (inactive) | > 9.62 µM
19 | CC12CCCCC1(O)[N+](=O)C1=C(CCCC1)N2[O-] (stereo not given) | -13.5% (inactive) | > 9.62 µM
20 | Cc1ccc(NC(=O)CNc2cccc(C)c2C)c(C)c1 | -12.6% (inactive) | > 9.62 µM
21 | Clc1ccc(CSC2=NCCCN2)cc1Cl | -30.5% (inactive) | > 9.62 µM
22 | CCNC(=O)c1nc[nH]c1C(=O)NCC | 2.98% (inactive) | > 9.62 µM
23 | CCCc1[nH]nc2c1C(c1ccc(OC)c(Cn3nc(C)c(Br)c3C)c1)C(C#N)=C(N)O2 (stereo not given) | -0.44% (inactive) | > 9.62 µM
24 | COc1cc(-c2nc(-c3ccc(NC(=O)c4ccc5c(c4)OCO5)cc3)no2)cc(OC)c1OC | -12.5% (inactive) | > 9.62 µM

Row | SMILES | Her2 inhibition [1] | EC50 [2]
25 | COCCn1c(Cc2ccccc2)nnc1SCC(=O)N(C)C | 6.46% (inactive) | > 9.62 µM
26 | O=C(NCc1ccco1)C(Cc1ccccc1)N1C(=O)c2ccccc2C1=O (stereo not given) | -6.2% (inactive) | > 9.62 µM
27 | Cn1c(SC2=CS(=O)(=O)c3ccccc32)nc2ccccc21 | 44.8% (inactive) | > 9.62 µM
28 | COC(=O)c1sccc1NC(=O)c1csc(C)c1 | 29.8% (inactive) | > 9.62 µM
29 | CC(C)(C)NC(=O)CSc1ncnc2c1nnn2Cc1ccccc1Cl | -10.2% (inactive) | > 9.62 µM
30 | Cc1ccc(C(c2sc3nc(C)nn3c2O)N2CCN(c3ccccc3F)CC2)cc1 (stereo not given) | -4.31% (inactive) | > 9.62 µM
31 | C=CCSC1=N/C(=C\C=C\c2ccco2)C(=O)S1 | 28.4% (inactive) | > 9.62 µM
32 | CCN(CC(=O)NCc1cccs1)c1nnnn1-c1ccccc1 | -22.3% (inactive) | > 9.62 µM
33 | C=CCc1cccc2cc(C(=O)NC)c(=O)oc12 | 3.58% (inactive) | > 9.62 µM
34 | N#Cc1c(N)sc(=S)c2c1CCN(Cc1ccccc1)C2 | -20.9% (inactive) | > 9.62 µM
35 | CCOc1ccc(NC(=O)C/C(N)=N/O)cc1 | -1.78% (inactive) | > 9.62 µM
36 | CSc1ccc2c(c1)N(CCC1CCCCN1C)c1ccccc1S2 (stereo not given) | -45.6% (inactive) | > 9.62 µM
37 | Cc1ccc(C)n1-c1ccc(N2CCOCC2)nc1 | 3.86% (inactive) | > 9.62 µM
38 | COC(=O)CC1=C(C(=O)OC)C(c2ccc3c(c2Cl)OCO3)C(C#N)=C(N)O1 (stereo not given) | -10.7% (inactive) | > 9.62 µM
39 | CCOC(=O)c1c(C)oc2c1c(C(c1ccncc1)N1CCOCC1)c(O)c1ccccc12 (stereo not given) | 23.5% (inactive) | > 9.62 µM
40 | Cn1c(=O)c2c(SCc3cccc(C(F)(F)F)c3)nc(-c3ccco3)nc2n(C)c1=O | -20.9% (inactive) | > 9.62 µM
41 | O=C(Nc1ccccc1NC(=O)NC1CCCCC1)NC1CCCCC1 | -1.72% (inactive) | > 9.62 µM
42 | CCOC(=O)Cc1csc(NC(=O)COc2ccc(OC)cc2)n1 | -22.7% (inactive) | > 9.62 µM
43 | C=CCN=C(NC#N)SCc1ccccc1Cl | 0.27% (inactive) | > 9.62 µM
44 | O=S(=O)(Nc1ccc2c(c1)CCC2)c1cccs1 | 10.2% (inactive) | > 9.62 µM
45 | CCN(C(=O)COC(=O)c1cc(C)n(-c2ccc(F)cc2)c1C)C1CCS(=O)(=O)C1 (stereo not given) | -2.5% (inactive) | > 9.62 µM
46 | COc1ccccc1-n1nnnc1S(=O)(=O)Cc1ccc(Cl)cc1 | 23.5% (inactive) | > 9.62 µM
47 | CCn1c2ccccc2c2cc(C3C(C#N)=C(N)Oc4n[nH]c(COC)c43)ccc21 (stereo not given) | 29.6% (inactive) | > 9.62 µM
48 | CC(C)C(=O)N(Cc1cc2ccccc2[nH]c1=O)C(C)(C)C | -2.53% (inactive) | > 9.62 µM

Row | SMILES | Her2 inhibition [1] | EC50 [2]
49 | COc1ccccc1-n1c(SCC(=O)NC(C)(C)C)nc(O)cc1=O | 8.19% (inactive) | > 9.62 µM
50 | CC1(C)CC(=O)C2=C(C1)OC(=O)C2(NC(=O)c1cccs1)C(F)(F)F (stereo not given) | -18.5% (inactive) | > 9.62 µM
51 | CCN1C(=O)CC(C(=O)Nc2ccc(F)cc2)SC1=Nc1ccc2c(c1)OCO2 (stereo not given) | -33.1% (inactive) | > 9.62 µM
52 | Oc1ccc(N=Cc2ccc(-c3cccs3)s2)cc1 | 37.6% (inactive) | < 0.024 µM
53 | N#CC1=C2SCN(c3ccccc3)CN2C(=O)CC1c1cccs1 (stereo not given) | -27.6% (inactive) | > 9.62 µM
54 | CCN(CC)c1ccc2c(c1)oc(=O)c1c(Cl)cc(=O)oc12 | -20.7% (inactive) | > 9.62 µM
55 | O=C(CCn1[nH]c(=O)c2ccccc2c1=O)OC1CCCCC1 | -7.62% (inactive) | > 9.62 µM
56 | Cn1cnc2c1c(=O)[nH]c(=O)n2C | -20.9% (inactive) | > 9.62 µM
57 | CC(=O)C(Sc1ncnc2c1nnn2-c1ccc(F)cc1)C(=O)N(C)C (stereo not given) | -16.5% (inactive) | > 9.62 µM
58 | Cc1ccccc1-c1nc(CN2CCC(C(=O)NCCC3=CCCCC3)CC2)c(C)o1 | -53.7% (inactive) | > 9.62 µM
59 | Nc1c(S(=O)(=O)c2cccc(Cl)c2)c2nc3ccccc3nc2n1/N=C/c1ccc(O)c(O)c1 | 11.2% (inactive) | > 9.62 µM
60 | N#CCSc1nc2cc(C(=O)N3CCC(C(N)=O)CC3)ccc2c2nc3ccccc3n12 | 5.14% (inactive) | > 9.62 µM
61 | Cc1cc(-n2c(C)cc(C(=O)CSc3nnnn3-c3ccc(Cl)cc3)c2C)no1 | -6.46% (inactive) | > 9.62 µM
62 | CS(=O)(=O)c1ncc(Cl)c(C(=O)Nc2ccc(N3CCOCC3)cc2)n1 | 19.8% (inactive) | > 9.62 µM
63 | OC(CCN1CCCC1)(c1ccccc1)C1CCCCC1 (stereo not given) | -24.9% (inactive) | > 9.62 µM
64 | CCOC(=O)N1CCN(c2nnnn2-c2ccccc2)CC1 | -3.51% (inactive) | > 9.62 µM
65 | COc1ccccc1-c1cc(C(F)(F)F)nc(S(=O)(=O)CCCC(=O)N2CCCCC2C)n1 (stereo not given) | -11.6% (inactive) | > 9.62 µM
66 | OC(CN1CCN(c2cccc(C(F)(F)F)c2)CC1)c1c[nH]c2ccccc12 (stereo not given) | 4.59% (inactive) | > 9.62 µM
67 | CCc1nc(N)c(C#N)c(-c2cccnc2)c1C | 2.53% (inactive) | > 9.62 µM
68 | COC(=O)CS(=O)(=O)c1nnc([C@H](Cc2ccccc2)NC(=O)OC(C)(C)C)o1 | -2.38% (inactive) | > 9.62 µM
69 | Cc1ccc(S(=O)(=O)Nc2cccc3ncccc23)s1 | 14.8% (inactive) | > 9.62 µM
70 | Cc1cccc(Nc2nc(-c3ccccn3)cs2)n1 | 0.46% (inactive) | > 9.62 µM
